Read-outs that look alike come from different tables or passages of the source.
Experiments:
[1] = molecular target: T1, α-glucosidase (Saccharomyces cerevisiae, UniProt P53341); assay: AGI kinetic analysis (Lineweaver–Burk plots); assay type: biochemical
Description: Four isocoumarins 1–4 and four flavonoids 5–8 were identified from the APE fraction, and AGI kinetic analyses were performed. During the reaction, α-glucosidase (0.76 unit/mL in 100-mmol phosphate buffer [pH 6.9]) activity was inhibited by the compounds (I) in the presence of the substrate (4-mmol p-nitrophenyl-α-D-glucopyranoside in 100-mmol phosphate buffer [pH 6.9]). The inhibition modes (competitive, uncompetitive, non-competitive, or mixed) of isocoumarins 1–4 and flavonoids 5–8 were examined using nonlinear regression Michaelis–Menten enzyme kinetics. The Lineweaver–Burk plot methods were used to determine kinetic parameters at increasing substrate and compound concentrations, and the parameters were calculated using a nonlinear regression program (Sigma Plot; SPCC Inc., Chicago, IL, USA). The obtained results represent three independent experiments.

[2] = molecular target: T1, α-glucosidase; details: has been reported; cited from earlier work

T1 sequence (P53341 whole entry): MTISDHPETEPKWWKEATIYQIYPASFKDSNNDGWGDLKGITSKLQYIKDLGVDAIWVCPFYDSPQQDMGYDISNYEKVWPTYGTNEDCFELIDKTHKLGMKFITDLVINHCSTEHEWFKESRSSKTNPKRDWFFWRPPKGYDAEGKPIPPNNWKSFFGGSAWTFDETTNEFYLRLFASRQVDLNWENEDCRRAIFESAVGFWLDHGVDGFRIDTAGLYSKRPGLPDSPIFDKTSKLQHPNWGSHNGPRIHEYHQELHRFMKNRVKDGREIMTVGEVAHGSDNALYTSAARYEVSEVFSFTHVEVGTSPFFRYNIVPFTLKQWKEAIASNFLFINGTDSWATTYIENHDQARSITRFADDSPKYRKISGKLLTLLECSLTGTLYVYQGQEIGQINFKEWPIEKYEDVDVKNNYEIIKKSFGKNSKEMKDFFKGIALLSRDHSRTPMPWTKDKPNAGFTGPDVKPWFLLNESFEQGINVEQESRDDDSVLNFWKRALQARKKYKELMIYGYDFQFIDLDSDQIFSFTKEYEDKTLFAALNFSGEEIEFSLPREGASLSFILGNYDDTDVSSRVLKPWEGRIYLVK

SMILES	Inhibition Mode [1]	Inhibition Mode [2]
O=C1OC(CCc2ccc(O)cc2)Cc2cc(O)cc(O)c21 (stereo not drawn) [Compound 3, desmethylagrimonolide]	Non-competitive	
O=c1c(O)c(-c2ccc(O)c(O)c2)oc2cc(O)cc(O)c12 [Compound 6, quercetin]		competitive
COc1ccc(CCC2Cc3cc(O)cc(O)c3C(=O)O2)cc1 (stereo not drawn) [Compound 1, agrimonolide]	Non-competitive	
